Measured values from PMC11934087, “Rational Design of Stapled Covalent Peptide Modifiers of Oncoprotein E6 from Human Papillomavirus” (ACS Chemical Biology, 2025).
Where “and” joins values, the source holds several entries; their conditions need not be identical. Identical values can stand only once. Like-named read-outs stand apart in the source and are kept apart here. Where a SMILES comes first, the peptide text is derived from it. Bridges are numbered along the chain shown (N, C = ends). Where no end group is shown, it is not given here. [ ]: non-standard residue; d: D form. The star is where a group is joined. 5FAM = O=C1OC2(c3ccc(O)cc3Oc3cc(O)ccc32)c2ccc(C(=O)*)cc21; R8 = C=CCCCCCC[C@@](C)(N)C(=O)O; S5 = C=CCCC[C@](C)(N)C(=O)O; Dap = NC[C@H](N)C(=O)O; Acryloyl = C=CC(=O)*; BrAc = O=C(CBr)*; ClAc = O=C(CCl)*; βAla = NCCC(=O)O

Columns and labels:
[1] = target: T1, GST-E6 (GST-tagged HPV16 E6 protein) (Human papillomavirus type 16, UniProt P03126); assay: Noncompetitive fluorescence polarization (FP) binding assay; parameters: species or system Human Papillomavirus (HPV-16)
T1 construct: host or cells: E. coli BL21
Procedure: An N-terminal carboxyfluorescein was included for FP analysis of binding affinity for both the natural backbone and the stapled peptides.
For noncompetitive FP experiments, varying concentrations of GST-E6 protein (38 μM; 10 point 2-fold serial dilution) were incubated with 30 nM fluorescently labeled peptides in buffer (10 μL total volume; 50 mM Tris, 200 mM NaCl, 1 mM DTT, 0.1% [v/v] Trition X-100) in black 384-well plates. For competitive FP experiments, 100 nM GST-E6 was incubated with 30 nM fluorescently labeled noncovalent peptide and varying concentrations (20 μM; 3-fold serial dilution) of covalent peptide in buffer (20 μL) with a final DMSO content of 0.5% [v/v]. Negative control (polarization reference; 30 nM fluorescent peptide, no protein) and blank reference (buffer alone) were included in triplicate for G-factor calibration. Sample plates were centrifuged (1 min, 500g) and incubated for 30 min at RT. Following incubation, FP at equilibrium was measured on a Tecan M1000 microplate reader (ex = 470 nm, em = 525; gain optimized, 200 flashes, 300 ms settle time, G-factor reference value 30 mP). Measured polarizations were fitted to a sigmoidal dose–response curve using GraphPad Prism software to generate KD values.

bovine α-chymotrypsin = bovine α-chymotrypsin (Bos taurus, UniProt P00766); assay: in vitro; conditions: 50 μM peptide, 50 nM bovine α-chymotrypsin, pH 7.5, room temp, HPLC
Procedure: Chymotrypsin was chosen due to its substrate selectivity for peptides containing hydrophobic side chains, including leucine, making the LxxLL motif a well-suited substrate for proteolytic cleavage by this protease.[54]
For each time point, a 50 μL aliquot was removed from the reaction mixture and quenched with 40 μL of 0.5% [v/v] trifluoroacetic acid in acetonitrile. Quenched samples were subsequently analyzed by analytical reverse-phase HPLC, and the remaining undigested peptide was quantified by integration of AUC. A plot of percent peptide remaining vs time was fit to a one-phase exponential decay to calculate half-life using GraphPad Prism software.

[2] = Off-target reactivity with DTT; format: physicochemical; conditions: DTT 1 mM
[3] = Glutathione reactivity assay (HPLC time course)
Procedure: To evaluate the reactivity toward off-target thiols, the acrylamide, bromoacetamide, and chloroacetamide covalent peptides were exposed to glutathione (10 equiv) in an HPLC time course assay over 96 h (Figure 4A). Here, a set of nonfluorescent peptides (2b, 3b, and 4b) were synthesized with an N-terminal tryptophan for quantification through absorbance measurements. Glutathione is the most abundant thiol in human cells,[40] and time point measurements were obtained by quenching reactions with cold acetonitrile containing TFA (0.1%) and 5-carboxyfluorescein as an internal standard.
Covalent peptides (100 μM) were diluted from 10 mM DMSO stock solutions (1% final DMSO content) and incubated in buffer (500 μL total volume; 50 mM Tris, 200 mM NaCl) with glutathione (10 equiv, 1 mM) at 37 °C. To quench the reaction, 10 μL of the reaction mixture was added to 100 μL of cold acetonitrile containing 0.1% TFA [v/v] and 10 μM fluorescein, included as an internal standard. Reaction mixtures were first analyzed by LCMS after 1 h of incubation to assign the glutathione adduct peak by comparison to mixtures quenched immediately following peptide addition. […] The AUC of the reacted covalent peptide was normalized to the AUC of the fluorescein standard. These values were plotted and fitted with nonlinear regression using GraphPad Prism software.

[4] = target: T1, GST-E6 (GST-tagged HPV16 E6 protein); assay: Competitive fluorescence polarization assay against a fluorescent E6 peptide ligand; format: binding, Human Papillomavirus (HPV-16)
Procedure: Next, covalent inhibition was evaluated by using a competitive FP assay. Recombinant GST-E6 was pre-incubated with a fluorescently labeled ligand for 30 min before addition of varying concentrations of the non-fluorescent covalent peptides (Figure 4B). Fluorophore polarization is greatest when the ligand is bound to its target, and consequently, a displacement of the ligand by the covalent peptide results in a decrease in polarization.[41],[42] The formation of a covalent bond between the peptide inhibitor and the C58 residue within E6 is expected to occur more slowly than noncovalent binding, permitting characterization of the affinity of the peptides 2b, 3b, and 4b.[41] […]
For noncompetitive FP experiments, varying concentrations of GST-E6 protein (38 μM; 10 point 2-fold serial dilution) were incubated with 30 nM fluorescently labeled peptides in buffer (10 μL total volume; 50 mM Tris, 200 mM NaCl, 1 mM DTT, 0.1% [v/v] Trition X-100) in black 384-well plates. […] Following incubation, FP at equilibrium was measured on a Tecan M1000 microplate reader (ex = 470 nm, em = 525; gain optimized, 200 flashes, 300 ms settle time, G-factor reference value 30 mP). Measured polarizations were fitted to a sigmoidal dose–response curve using GraphPad Prism software to generate KD values.

[5] = target: T2, Glutathione S-transferase (GST) tagged HPV-16 E6 (Human papillomavirus type 16 (HPV-16), UniProt P03126 1-158); assay: fluorescence polarisation; GST-E6 titrated (from 38 μM, 10 point 2-fold serial dilution) against 30 nM fluorescent peptide; 50 mM Tris, 200 mM NaCl, 1 mM DTT, 0.1% Triton X-100; 30 min at RT; sigmoidal dose-response fit; conditions: both partners purified
T2 construct: Oncoprotein E6 of human papillomavirus type 16; GST fusion printed as 47 kDa; also called GST-E6; E6-GST; source: E. coli BL21, purified (glutathione agarose)

[6] = target: T2, Glutathione S-transferase (GST) tagged …; assay: fluorescence polarisation; conditions: both partners purified

T1 sequence (P03126 whole entry): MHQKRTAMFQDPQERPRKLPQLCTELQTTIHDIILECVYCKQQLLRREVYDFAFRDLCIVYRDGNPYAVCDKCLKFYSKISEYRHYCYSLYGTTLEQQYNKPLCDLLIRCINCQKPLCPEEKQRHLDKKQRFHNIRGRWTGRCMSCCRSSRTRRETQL
T2 sequence (P03126 whole entry, the tested form may be a part): as the sequence (P03126 whole entry) above

Work on `CC(C)C[C@H](NC(=O)[C@H](CC(C)C)NC(=O)[C@]1(C)CCCC=CCCCCCC[C@@](C)(NC(=O)[C@H](C)NC(=O)CCNC(=O)c2ccc3c(c2)C(=O)OC32c3ccc(O)cc3Oc3cc(O)ccc32)C(=O)N[C@@H](C)C(=O)N[C@@H](CCC(=O)O)C(=O)N[C@@H](CC(C)C)C(=O)N[C@@H]([C@@H](C)O)C(=O)N[C@@H](CC(C)C)C(=O)N[C@@H](CCC(N)=O)C(=O)N1)C(=O)NCC(N)=O` [compound 10] ({5FAM-βAla}-A[R8]AELTLQ[S5]LLG-NH2; staple 2-9) yielded a Kd [1] greater than 38000 nM.

For `CC(C)C[C@H](NC(=O)[C@H](CC(C)C)NC(=O)[C@H](CCC(=O)O)NC(=O)[C@]1(C)CCCC=CCCCCCC[C@@](C)(NC(=O)CCNC(=O)c2ccc3c(c2)C(=O)OC32c3ccc(O)cc3Oc3cc(O)ccc32)C(=O)N[C@@H](C)C(=O)N[C@@H](C)C(=O)N[C@@H](CCC(=O)O)C(=O)N[C@@H](CC(C)C)C(=O)N[C@@H]([C@@H](C)O)C(=O)N[C@@H](CC(C)C)C(=O)N1)C(=O)NCC(N)=O` [compound 9] ({5FAM-βAla}-[R8]AAELTL[S5]ELLG-NH2; staple 1-8), the “degradation by chymotrypsin within 4 h” value (bovine α-chymotrypsin; 4 h) was “no degradation”, the “degradation by chymotrypsin on continued incubation up to 16 h” value (bovine α-chymotrypsin; up to 16 h) was “no significant degradation” and the Kd [1] was 430 nM and < 1000 nM.

With `CC(C)C[C@H](NC(=O)[C@H](CC(C)C)NC(=O)[C@H](CCC(=O)O)NC(=O)[C@H](CCC(N)=O)NC(=O)[C@H](CC(C)C)NC(=O)[C@@H](NC(=O)[C@]1(C)CCCC=CCCC[C@](C)(NC(=O)CCNC(=O)c2ccc3c(c2)C(=O)OC32c3ccc(O)cc3Oc3cc(O)ccc32)C(=O)N[C@@H](C)C(=O)N[C@@H](C)C(=O)N[C@@H](CCC(=O)O)C(=O)N1)[C@@H](C)O)C(=O)NCC(N)=O` [compound 5] ({5FAM-βAla}-[S5]AAE[S5]TLQELLG-NH2; staple 1-5) the Kd [1] was less than 1000 nM.

With `CC(=O)N[C@@H](Cc1c[nH]c2ccccc12)C(=O)NCCC(=O)N[C@@H](C)C(=O)N[C@@H](C)C(=O)N[C@@H](C)C(=O)N[C@@H](CCC(=O)O)C(=O)N[C@@H](CC(C)C)C(=O)N[C@H](C(=O)N[C@@H](CC(C)C)C(=O)N[C@@H](CCC(N)=O)C(=O)N[C@@H](CCC(=O)O)C(=O)N[C@@H](CC(C)C)C(=O)N[C@@H](CC(C)C)C(=O)N[C@@H](CNC(=O)CBr)C(N)=O)[C@@H](C)O` [3b] (Ac-W[βAla]AAAELTLQELL[Dap](BrAc)-NH2) the “half-life of off-target reaction with DTT” value [2] was 2.1 min and the “t1/2 of reaction with glutathione” value ([3]; 100 μM peptide, glutathione 10 equiv (1 mM), 50 mM Tris, 200 mM NaCl, 1% DMSO, 37 °C, HPLC 280 nm, GSH adduct peak area, n = 3) was 0.142 h.

With `CC(=O)N[C@@H](Cc1c[nH]c2ccccc12)C(=O)NCCC(=O)N[C@@H](C)C(=O)N[C@@H](C)C(=O)N[C@@H](C)C(=O)N[C@@H](CCC(=O)O)C(=O)N[C@@H](CC(C)C)C(=O)N[C@H](C(=O)N[C@@H](CC(C)C)C(=O)N[C@@H](CCC(N)=O)C(=O)N[C@@H](CCC(=O)O)C(=O)N[C@@H](CC(C)C)C(=O)N[C@@H](CC(C)C)C(=O)N[C@@H](CNC(=O)CCl)C(N)=O)[C@@H](C)O` [4b] (Ac-W[βAla]AAAELTLQELL[Dap](ClAc)-NH2) the EC50 [4] was 40 nM and the “t1/2 of reaction with glutathione” value ([3]; 100 μM peptide, glutathione 10 equiv (1 mM), 50 mM Tris, 200 mM NaCl, 1% DMSO, 37 °C, up to 96 h, HPLC 280 nm, GSH adduct peak area, n = 3) was 7.0 h.

With `CC(C)C[C@H](NC(=O)[C@H](CC(C)C)NC(=O)[C@]1(C)CCCC=CCCC[C@](C)(NC(=O)[C@H](CCC(=O)O)NC(=O)[C@H](C)NC(=O)[C@H](C)NC(=O)[C@H](C)NC(=O)CCNC(=O)c2ccc3c(c2)C(=O)OC32c3ccc(O)cc3Oc3cc(O)ccc32)C(=O)N[C@@H]([C@@H](C)O)C(=O)N[C@@H](CC(C)C)C(=O)N[C@@H](CCC(N)=O)C(=O)N1)C(=O)NCC(N)=O` [compound 7] ({5FAM-βAla}-AAAE[S5]TLQ[S5]LLG-NH2; staple 5-9) the Kd [1] was 3000 nM.

For `C=CC(=O)NC[C@H](NC(=O)[C@H](CC(C)C)NC(=O)[C@H](CC(C)C)NC(=O)[C@H](CCC(=O)O)NC(=O)[C@H](CCC(N)=O)NC(=O)[C@H](CC(C)C)NC(=O)[C@@H](NC(=O)[C@H](CC(C)C)NC(=O)[C@H](CCC(=O)O)NC(=O)[C@H](C)NC(=O)[C@H](C)NC(=O)[C@H](C)NC(=O)CCNC(=O)[C@H](Cc1c[nH]c2ccccc12)NC(C)=O)[C@@H](C)O)C(N)=O` [2b] (Ac-W[βAla]AAAELTLQELL[Dap](Acryloyl)-NH2), the “t1/2 of reaction with glutathione” value [3] was 10.3 h.

B1: (i, i + 4) stapled peptide 7 (peptide)
chain: {5FAM-βAla}-AAAE[S5]TLQ[S5]LLG-NH2
modifications: staple 5-9
SMILES: CC(C)C[C@H](NC(=O)[C@H](CC(C)C)NC(=O)[C@]1(C)CCCC=CCCC[C@](C)(NC(=O)[C@H](CCC(=O)O)NC(=O)[C@H](C)NC(=O)[C@H](C)NC(=O)[C@H](C)NC(=O)CCNC(=O)c2ccc3c(c2)C(=O)OC32c3ccc(O)cc3Oc3cc(O)ccc32)C(=O)N[C@@H]([C@@H](C)O)C(=O)N[C@@H](CC(C)C)C(=O)N[C@@H](CCC(N)=O)C(=O)N1)C(=O)NCC(N)=O
For B1, the Kd [5] was 3200 nM.

Molecule {5FAM-βAla}-AAAE[R8]TLQELL[S5] (staple 5-12) [(i, i + 7) stapled peptide 11] has a Kd [5] of 7000 nM.

Work on {5FAM-βAla}-[S5]AAE[S5]TLQELLG (staple 1-5) [(i, i + 4) stapled peptide 5] yielded a Kd [5] of 590 nM.

B2: (i, i + 4) stapled peptide 8 (peptide)
chain: {5FAM-βAla}-AAAELTL[S5]ELL[S5]-NH2
modifications: staple 8-12
SMILES: CC(C)C[C@@H]1NC(=O)[C@H](CCC(=O)O)NC(=O)[C@@](C)(NC(=O)[C@H](CC(C)C)NC(=O)[C@@H](NC(=O)[C@H](CC(C)C)NC(=O)[C@H](CCC(=O)O)NC(=O)[C@H](C)NC(=O)[C@H](C)NC(=O)[C@H](C)NC(=O)CCNC(=O)c2ccc3c(c2)C(=O)OC32c3ccc(O)cc3Oc3cc(O)ccc32)[C@@H](C)O)CCCC=CCCC[C@@](C)(C(N)=O)NC(=O)[C@H](CC(C)C)NC1=O
In the case of B2, the Kd [5] is reported as 8000 nM.

For AAAELTLQELL-{Dap(bromoacetamide)} (not fully specified (N-terminus)) [nonfluorescent bromoacetamide covalent peptide 3b], the EC50 [6] was 2410 nM.

Molecule {5FAM-βAla}-[R8]AAELTL[S5]ELLG (staple 1-8) [(i, i + 7) stapled peptide 9] has a Kd [5] of 431 nM.

With AAAELTLQELL-{Dap(acrylamide)} (not fully specified (N-terminus)) [nonfluorescent acrylamide covalent peptide 2b] the EC50 [6] was 2070 nM.
